The test system of data set [1] is ICR mice icv-injected with Aβ1–42. In words: Novel object recognition, mice model with icv-injection of Aβ1–42. It is filed as in vivo. Particulars: ip, once a day, vs rivastigmine 4. As for the experimental part: Mice model with icv-injection of Aβ1–42 The experiments were performed using ICR male mice (8–10 weeks old, weight 18–20 g), which were purchased from Shanghai Bikai Animal Breeding Factory (Shanghai, China). Animals were housed in cages (6 mice per cage) at a constant temperature of 25±2 °C, humidity of 55%±10% and a light/dark (12:12) cycle. The mice had unlimited access to food and water prior to the experiment. Specified conditions for the maintenance of mice were ensured throughout the experiments, including tree bedding (Yizheng Anlimao Biotechnology Co., Ltd., China) and lab feed (Zimao, China). For behavioural tests, mice were selected randomly, each group consisted of 6 mice. The experiments were performed between 9 am and 3 pm.
According to the literature procedure, recombinant human hexafluoroisopropanol-pretreated Aβ1–42 from Merck Millipore (Darmstadt, Germany) was dissolved in 1% DMSO, diluted with saline to the final concentration of 2 mg/mL, and incubated for 72 h to form oligomers. […]
Novel object recognition experiment was performed in a maze with dimensions 50 cm×50 cm×40 cm, with black cuboid (4 cm×4 cm×5 cm) as the old object, and white cylinder (2r = 5 cm, h = 5 cm) as the new object. […] Time spent exploring new and old objects was recorded using ANY-maze software and processed using GraphPad Prism 5.

The next data set has as its target hAChE (Homo sapiens, UniProt P22303). In words: ChE IC50 determination, method of Ellman, hAChE. The format is biochemical. Here is the method:
The inhibitory potencies of the compounds against the ChEs were determined using the method of Ellman following the procedure described previously. Briefly, compound stock solutions in DMSO were incubated with Ellman’s reagent and ChEs (final concentrations: 370 μmol/L Ellman’s reagent, approximately 1 nmol/L or 50 pmol/L hBChE or hAChE, respectively) in 0.1 mol/L sodium phosphate pH 8.0 for 5 min at 20 °C. For time-dependency measurements, the pre-incubation time was varied (1, 5, 15, 30 or 60 min). The reactions were started by the addition of the substrate (final concentration, 500 μmol/L butyrylthiocholine iodide or acetylthiocholine iodide for hBChE and hAChE, respectively). The final content of DMSO was always 1%. The increase in absorbance at 412 nm was monitored for 2 min using a 96-well microplate reader (Synergy HT, BioTek Instruments, VT, USA). The initial velocities in the presence (vi) and absence (v0) of the test compounds were calculated. The inhibitory potencies were expressed as the residual activities, according to Eq. (1):(1) RA = vi / v0
For IC50 determinations, at least seven different concentrations for each compound were used. The IC50 values were obtained by plotting the residual ChE activities against the applied inhibitor concentrations, with the experimental data fitted to a four-parameter logistic function (GraphPad Prism 9.4). Tacrine and donepezil were used as positive controls.
For orientation: Ellman's reagent forms a yellow product with free thiols.

Data set [2] can be described thus: Shake-flask partition coefficient / logD. The format is physicochemical. Particulars: n-octanol/PBS buffer. Here is the method: Shake-flask partition coefficient measurement was done according to OECD guideline 107 (27. 7. 1995) and EPA OPPTS 830.7550 guideline (1996). […] […] Each solvent ratio was done in duplicates. The Eppendorf tubes were thoroughly shaken to ensure partition and centrifuged (5000 × g, 10 min) to separate the phases. Water phase (carefully sampled using needle and syringe) was transferred to HPLC vials directly, whereas n-octanol phases were diluted with MeCN (10–50×) prior to analysis. Additional dilutions were carried out, if needed.

Another data set has as its system tau. Kind of data set: Western blot of APP/PS1 mice brain homogenates, tau. It is filed as in vivo, C57BL/6J-TgN(APP/PS1)ZLFILAS mice. The following applies: 15-day treatment, 1 or 5 mg/kg ip. Background: Immunoblotting shows a protein as a band on a membrane.
Data set [3] in a line: pKa from solubility and partition measurements. The format is physicochemical. The following applies: break in the logP vs. pH and log(solubility) vs. pH plot. As for the experimental part: The supernatants were diluted 1:5 with 50% MeCN or used directly for UPLC analysis (calibration curve was constructed from 0.5–100 mg/L standard solutions of compound 8).
Shake-flask partition coefficient measurement was done according to OECD guideline 107 (27. 7. 1995) and EPA OPPTS 830.7550 guideline (1996). Briefly, PBS pH 7.4 buffer (50 mL) and n-octanol (50 mL) were thoroughly shaken to ensure saturation of both phases and left to separate. Compound 8 stock solution in n-octanol (approx. 1000 mg/L) was accurately pipetted into Eppendorf tubes (500, 1000, 500 μL, respectively) and n-octanol-saturated PBS pH 7.4 buffer (500, 500, 1000 μL, respectively) was added. Each solvent ratio was done in duplicates. The Eppendorf tubes were thoroughly shaken to ensure partition and centrifuged (5000 × g, 10 min) to separate the phases. Water phase (carefully sampled using needle and syringe) was transferred to HPLC vials directly, whereas n-octanol phases were diluted with MeCN (10–50×) prior to analysis. Additional dilutions were carried out, if needed.

Consider one molecule from PMC12491715 (Acta Pharmaceutica Sinica. B, 2025).

Sequence of hAChE (P22303 32-614): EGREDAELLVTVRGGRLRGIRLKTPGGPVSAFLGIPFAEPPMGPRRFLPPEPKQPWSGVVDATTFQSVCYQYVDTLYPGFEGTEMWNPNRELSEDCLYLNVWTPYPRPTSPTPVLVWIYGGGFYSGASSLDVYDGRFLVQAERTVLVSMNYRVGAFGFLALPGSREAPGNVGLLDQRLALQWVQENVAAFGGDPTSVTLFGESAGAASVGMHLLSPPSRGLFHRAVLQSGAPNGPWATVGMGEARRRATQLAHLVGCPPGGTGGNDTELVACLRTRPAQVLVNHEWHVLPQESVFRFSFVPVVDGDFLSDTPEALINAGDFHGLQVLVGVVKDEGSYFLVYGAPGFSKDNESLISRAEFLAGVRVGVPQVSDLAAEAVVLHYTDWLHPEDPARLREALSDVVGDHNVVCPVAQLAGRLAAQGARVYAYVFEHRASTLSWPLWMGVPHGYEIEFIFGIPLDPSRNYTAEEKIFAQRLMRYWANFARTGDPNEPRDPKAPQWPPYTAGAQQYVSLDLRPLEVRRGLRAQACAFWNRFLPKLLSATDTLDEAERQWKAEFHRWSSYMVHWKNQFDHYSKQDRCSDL

As a reminder, the logD is the decadic logarithm of the distribution of all forms, ionised or not, between an organic phase and buffer at a given pH. The low end stands for a more hydrophilic compound, the high end for a more lipophilic compound. A word on the pKa: it is the pH at which an ionisable group is half protonated. High values mean a weaker acid or stronger base, low ones a stronger acid or weaker base. As to `CCN(CC)C(=O)n1cnc(C2(CC)Cc3ccccc3C2)c1` [Compound 8, N,N-Diethyl-4-(2-ethylindan-2-yl)-1H-imidazole-1-carboxamide], the “recognition memory in novel object recognition task” value in data set [1] is “restored recognition memory comparable or better than 4”. Further, the “hAChE time-dependency observed: Yes/No” value on hAChE (pre-incubation time varied) is given as “No”. The remaining activity at 100 µM on hAChE (residual activity at 100 μmol/L, after 5 min preincubation, read-out: hAChE RA±SD (residual activity)) amounted to 62%. In addition, the logD in data set [2] (pH 0.91) was determined as 0.3 ± 0.06; in data set [2] (pH 1.99) it was 1.18 ± 0.1; in data set [2] (pH 3.07), 2.17 ± 0.25; in data set [2] (pH 4.44) it was 3.05 ± 0.1; in data set [2] (pH 6.02), 3.15 ± 0.14; in data set [2] (pH 7.4), 3.33 ± 0.11. The logD in data set [2] (pH 9.55) was found to be 3.52 ± 0.39. For the same molecule, the “tau hyperphosphorylation in whole brain homogenates” value in the data set on tau is “significantly lowered tau hyperphosphorylation”. The pKa in data set [3] was 4.1.
